Data reported in patent publication US9464064B2, “HCV helicase inhibitors and methods of use thereof” (University of Kansas, priority 2011, dated 2016).

Biological target: T1, HCV NS3 helicase NS3h_1b(con1) (Hepatitis C virus genotype 1b, UniProt Q9WMX2)
T1 construct: truncated C-terminally His-tagged NS3 proteins lacking the N-terminal protease, called NS3h; His-tag (C); made in house
Experiment: MBHA screen of NCI mechanistic set library at 20 μM (percent inhibition, compound interference)
Assay type: biochemical
Details: compounds at 20 μM; for Inh. (%) (Inhibition): calculated from Equation 1
Method in brief: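 Molecular beacon-based DNA unwinding assay; compounds screened at 20 μM in triplicate, with DMSO-only negative and 500 nM dT20 positive controls. Fluorescence (ex 643/em 670 nm) was read before and 30 min after adding ATP to 1 mM. Percent inhibition came from the change relative to DMSO controls; interference from pre-ATP fluorescence versus DMSO controls.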

[1] = MBHA with DNA substrate, assay interference calculated with Equation 2
[2] = assay interference calculated with Equation 2 (fluorescence vs DMSO-only controls before ATP)

T1 sequence (Q9WMX2 1192-1657): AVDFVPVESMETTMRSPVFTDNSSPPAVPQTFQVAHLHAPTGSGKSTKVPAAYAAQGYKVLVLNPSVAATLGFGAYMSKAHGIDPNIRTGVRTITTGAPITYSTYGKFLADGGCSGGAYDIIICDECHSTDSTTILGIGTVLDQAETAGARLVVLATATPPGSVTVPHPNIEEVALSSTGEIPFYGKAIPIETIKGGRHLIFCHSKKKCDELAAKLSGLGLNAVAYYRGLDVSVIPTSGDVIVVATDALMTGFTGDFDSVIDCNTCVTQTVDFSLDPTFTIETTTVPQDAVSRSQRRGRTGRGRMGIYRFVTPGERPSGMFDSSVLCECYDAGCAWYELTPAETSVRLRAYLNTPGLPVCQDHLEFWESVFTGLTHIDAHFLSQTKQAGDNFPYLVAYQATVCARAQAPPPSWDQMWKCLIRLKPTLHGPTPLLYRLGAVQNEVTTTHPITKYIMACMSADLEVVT

| SMILES | Int.* (Ratio) (Interference) [1] | Inh. (%) (Inhibition) (MBHA with DNA substrate) | Inh. (%) (Inhibition) (MBHA with a DNA substrate) | Int.* (Ratio) (Interference) [2] | Inh. (%) (Inhibition) (MBHA with DNA substrate, 20 µM) |
| --- | --- | --- | --- | --- | --- |
| COc1cc([C@H]2c3cc4c(cc3C[C@@H]3COC(=O)[C@H]32)OCO4)cc(OC)c1OC [Compound 403148] | 0.94 | 16.8 |  |  |  |
| C[C@@H]1CC[C@H]2C(C)(C)[C@H]3C[C@@]12CC[C@@]3(C)O [Compound 403883] |  |  | −4.0 | 0.93 |  |
| Nc1ncnc2c1ncn2C1OC(CO)C(O)C1O (stereo not drawn) [Compound 404241] | 1.06 |  |  |  | −11.9 |
| N#CC(=C1C=CC(=NO)C=C1)c1ccc(Cl)cc1 [Compound 405158] |  |  | 10.9 | 1.09 |  |
| OCC1OC(n2cnc3c(=S)nc[nH]c32)C(O)C1O (stereo not drawn) [Compound 406021] | 1.10 | 1.7 |  |  |  |
| O=c1c(O)c(-c2ccc(O)c(O)c2)oc2cc(O)ccc12 [Compound 407010] | 0.90 | 19.4 |  |  |  |
| CC(=O)OC1CC(n2cc(F)c(=O)[nH]c2=O)OC1CO (stereo not drawn) [Compound 407335] | 0.88 | 3.5 |  |  |  |
| CC12CCC(O)CC1CCC1C2CCC2(C)C(C3=CC(=O)OC3)CCC12O (stereo not drawn) [Compound 407806] | 1.00 | −11.1 |  |  |  |
| Cc1cc(O)c2c(c1)C(=O)c1cc(O)cc(O)c1C2=O [Compound 408120] |  |  | −29.4 | 1.05 |  |
| CC(C)(O)C=CC(=O)C(C)(O)C1C(O)CC2(C)C3CC=C4C(C=C(O)C(=O)C4(C)C)C3(C)C(=O)CC12C (stereo not drawn) [Compound 521777] | 0.90 | 5.8 |  |  |  |
| CSC1SC[C@H]2C(=O)N(C)[C@@H](C(C)C)C(=O)OC[C@@H](NC(=O)c3cnc4ccccc4n3)C(=O)N[C@@H](C)C(=O)N(C)[C@@H]1C(=O)N(C)[C@@H](C(C)C)C(=O)OC[C@@H](NC(=O)c1cnc3ccccc3n1)C(=O)N[C@@H](C)C(=O)N2C (stereo partly drawn) [Compound 526417] | 0.86 | 55.2 |  |  |  |
| N[C@@H](CN(O)N=O)C(=O)O [Compound 529469] | 0.89 | 18.9 |  |  |  |
| CC(C)c1ccc2nc3ccc(C(=O)NCCN(C)C)cn3c(=O)c2c1 [Compound 600305] | 0.91 | 26.6 |  |  |  |
| CCCCCn1cc2c3c(cccc31)C1C=C(C)CN(C)[C@@H]1C2.Cc1ccc(C(=O)OC(C(=O)O)C(OC(=O)c2ccc(C)cc2)C(=O)O)cc1 (stereo not drawn) [Compound 600681] | 0.95 | −19.1 |  |  |  |
| CCN(CC)CCOc1ccccc1/C=C/c1noc2ccccc12.Cl [Compound 601101] | 0.97 | −7.8 |  |  |  |
| Cc1nc2c(nc1C)C(=O)c1ccccc1C2=O [Compound 602617] | 0.97 | 3.9 |  |  |  |
| CN(C)c1cccc(F)c1C(=O)NC(=O)Nc1ccc(Cl)cc1 [Compound 603108] | 1.03 | −8.6 |  |  |  |
| C[n+]1c(-c2ccc(/C=C/C=N/NC(=O)c3ccc(C(=O)N/N=C/C=C/c4ccc(-c5cn6ccccc6[n+]5C)cc4)cc3)cc2)cn2ccccc21.Cc1ccc(S(=O)(=O)O)cc1 [Compound 603169] | 0.22 | 26.2 |  |  |  |
| C[Si](C)(CN)CN.[Cl][Pt][Cl] [Compound 603577] | 0.93 | 13.5 |  |  |  |
| Cc1ccc(S(=O)(=O)NC(=O)NC2=NC(C)(C)N(c3ccc(Cl)c(Cl)c3)C(N)=N2)cc1 [Compound 603624] |  |  | 7.5 | 0.92 |  |
| O=c1[nH]c2ccc(O)cc2o1 [Compound 603719] |  |  | −5.7 | 1.20 |  |
| C[C@H](CSC(=O)c1ccccc1)C(=O)N1c2ccccc2C[C@H]1C(=O)O [Compound 604535] | 1.08 | 1.0 |  |  |  |
| CCCCCCCCCCCCCCCCOP(=O)([O-])OCC[N+](C)(C)C [Compound 605583] | 0.89 | −10.9 |  |  |  |

| SMILES | Int.* (Ratio) (Interference) [1] | Inh. (%) (Inhibition) (MBHA with DNA substrate) | Inh. (%) (Inhibition) (MBHA with a DNA substrate) | Int.* (Ratio) (Interference) [2] | Inh. (%) (Inhibition) (MBHA with DNA substrate, 20 µM) |
| --- | --- | --- | --- | --- | --- |
| Cl.Nc1ccc2cc3ccc(N)cc3nc2c1 [Compound 605756] | 0.33 | 14.1 |  |  |  |
| CC(C)(C)OC(=O)NC(Cc1ccccc1)C(=O)OCN1C(=O)C2C3C=CC(C2C1=O)C1C2C(=O)N(COC(=O)C(Cc4ccccc4)NC(=O)OC(C)(C)C)C(=O)C2C31 (stereo not drawn) [Compound 607316] | 0.97 | −1.8 |  |  |  |
| O=[N+]([O-])c1ccc(-c2cn(-c3ccc(Cl)cc3)cn2)cc1 [Compound 610744] | 0.83 | 21.5 |  |  |  |
| COc1cc(C(O)CCBr)c(OC)cc1C (stereo not drawn) [Compound 611750] | 0.94 | −8.1 |  |  |  |
| C/C1=C\[C@H](C)C[C@H](C)OC(=O)CC(c2ccc(O)cc2)NC(=O)[C@@H](Cc2c(Br)[nH]c3ccccc23)N(C)C(=O)[C@H](C)NC(=O)[C@@H](C)C1 (stereo partly drawn) [Compound 613009] |  |  | −21.7 | 0.94 |  |
| CC(=O)Oc1ccc(C(c2ccc(OC(C)=O)cc2)c2ccccn2)cc1 [Compound 614826] |  |  | −4.8 | 1.06 |  |
| CC1(C)C(O)OC(O)C1(C)C (stereo not drawn) [Compound 614928] | 0.99 | 19.1 |  |  |  |
| C=C(C#N)C(=O)OCC(CC)CC.C=C(C#N)C(=O)OCC(CC)CC.CS(C)=O.CS(C)=O.Nc1c(N=Nc2ccc(-c3ccc(N=Nc4cc(S(=O)(=O)[O-])c5ccccc5c4N)cc3)cc2)cc(S(=O)(=O)[O-])c2ccccc12.[Pt+2] [Compound 615593] | 0.91 | −17.7 |  |  |  |
| OC(CBr)C(O)C(O)C(O)CBr (stereo not drawn) [Compound 616232] | 1.02 | −0.6 |  |  |  |
| CC(C)(C)[Si](C)(C)OCC1CCC(n2cnc3c(N)ncnc32)O1 (stereo not drawn) [Compound 616355] | 1.01 | −12.6 |  |  |  |
| CCCCCC/C=C\CCCCCCCCCc1cccc(OC)c1O [Compound 617540] |  |  | −28.4 | 1.11 |  |
| Cl.Nc1nccc2c1ncn2C1C=C(CO)C(O)C1O (stereo not drawn) [Compound 617989] | 0.96 | −12.9 |  |  |  |
| COc1ccc2c(c1)C=C([N+](=O)[O-])C(C1OC(C)(C)OC1C1COC(C)(C)O1)O2 (stereo not drawn) [Compound 618261] |  |  | −6.4 | 0.95 |  |
| O=C1C(Br)=C(Br)C(=O)c2ccccc21 [Compound 618332] | 1.03 | −18.7 |  |  |  |
| C/C=C(\CCC1NCCc2c1[nH]c1ccccc21)[Si](C)(C)C (stereo not drawn) [Compound 619165] | 0.89 | 13.6 |  |  |  |
| [Cl-].[Cl-].[Cl-].[Rh+3].c1ccc(-c2ccnc3c2ccc2c(-c4ccccc4)ccnc23)cc1.c1ccc(-c2ccnc3c2ccc2c(-c4ccccc4)ccnc23)cc1.c1ccc(-c2ccnc3c2ccc2c(-c4ccccc4)ccnc23)cc1 [Compound 619179] | 0.44 | 23.8 |  |  |  |
| O=C([O-])c1cc(I)cc(I)c1O.O=C([O-])c1cc(I)cc(I)c1O.[Mn+2] [Compound 619907] |  |  | −27.2 | 0.86 |  |
| COC(=O)C[S+]([O-])c1ccccc1 (stereo not drawn) [Compound 620050] |  |  | −3.3 | 0.96 |  |
| N#CCCN(CCC#N)c1ccc(C=Nc2ccc(F)cc2)cc1 [Compound 620277] | 0.93 | 17.1 |  |  |  |
| CCOC(=O)c1ccc(N=Cc2ccc(N(CCC#N)CCC#N)cc2)cc1 [Compound 620279] |  |  | −45.1 | 1.17 |  |
| Cc1c(N=Cc2ccc(N(CCC#N)CCC#N)cc2)c(=O)n(-c2ccccc2)n1C [Compound 620280] |  |  | −30.3 | 1.01 |  |
| C=C1C(=O)C23CC[C@@H]4C(C)(C(=O)OC)CCCC4(C)[C@@H]2CCC1(O)C3 (stereo partly drawn) [Compound 620358] | 0.91 | −10.5 |  |  |  |
